Reference: ChEMBL document CHEMBL1149012, “Effects of phenolic constituents from the mulberry tree on arachidonate metabolism in rat platelets” (J Nat Prod, 1986)
pIC50: −log10 of the molar value. Blank lines part the entries; values can stand above or below the compound they belong to. Active and inactive are the calls of the source. No cut-off for these calls is given here.

Experiments:
Platelet [1] = assay: Inhibition of 12-hydroxy-5,8,10,14-eicosatetraenoic acid formation in Wistar King platelets; type: functional, cell-based; details: Rattus norvegicus
Platelet [2] = assay: Inhibition of 12-hydroxy-5,8,10,14-eicosatetraenoic acid formation in Wistar King platelets at 0.1 mM; type: functional; details: Rattus norvegicus, values are per cent of control
Platelet [3] = assay: Stimulation of 12-hydroxy-5,8,10,14-eicosatetraenoic acid formation in Wistar King platelets at 0.1 mM; type: functional, cell-based; details: Rattus norvegicus
Platelet [4] = assay: Inhibition of 12-hydroxy-5,8,10,14-eicosatetraenoic acid formation in Wistar King platelets at 1 mM; type: functional; details: Rattus norvegicus
Platelet [5] = assay: Inhibition of thromboxane B2 formation in Wistar King platelets; type: functional, cell-based; details: Rattus norvegicus
Platelet [6] = assay: Inhibition of 12-hydroxy-5,8,10-heptadecatrienoic acid formation in Wistar King platelets; type: functional, cell-based; details: Rattus norvegicus
Platelet [7] = assay: Inhibition of thromboxane B2 formation in Wistar King platelets at 1 mM; type: functional; details: Rattus norvegicus
Platelet [8] = assay: Inhibition of 12-hydroxy-5,8,10-heptadecatrienoic acid formation in Wistar King platelets at 1 mM; type: functional; details: Rattus norvegicus
Platelet [9] = assay: Stimulation of 12-hydroxy-5,8,10,14-eicosatetraenoic acid formation in Wistar King platelets; type: functional, cell-based; details: Rattus norvegicus
Platelet [10] = assay: Stimulation of 12-hydroxy-5,8,10,14-eicosatetraenoic acid formation in Wistar King platelets at 1 mM; type: functional, cell-based; details: Rattus norvegicus
Platelet [11] = assay: Stimulation of 12-hydroxy-5,8,10,14-eicosatetraenoic acid formation in Wistar King platelets at 10 uM; type: functional, cell-based; details: Rattus norvegicus

pIC50 (Platelet [5]): 3.74
pIC50 (Platelet [6]): 3.95
Compound: CC(C)=CC[C@]12Oc3cc(O)c([C@H]4C=C(C)C[C@H](c5ccc(O)cc5O)[C@H]4C(=O)c4ccc(O)cc4O)c(O)c3C(=O)[C@@]1(O)Oc1cc(O)ccc12 [SANGGENON C]
Activity (Platelet [9]): Active
Activity (Platelet [10]): Active
Activity (Platelet [11]): Active

pIC50 (Platelet [5]): 3.45
pIC50 (Platelet [6]): 3.64
Compound: CC12C[C@@H](c3ccc(O)cc3O1)C13OC1(c1ccc(O)cc1O)Oc1cc(-c4cc5ccc(O)cc5o4)cc(O)c1C3C2=O (stereo not given in full) [MULBERROFURAN Q]
Activity (Platelet [9]): Active
Activity (Platelet [10]): Active
Activity (Platelet [11]): Active

pIC50 (Platelet [5]): 4.32
pIC50 (Platelet [6]): 4.36
Compound: CC(C)=CCC12Oc3cc(O)ccc3C1(O)Oc1cc(O)c([C@H]3C=C(C)C[C@@H](c4ccc(O)cc4O)[C@@H]3C(=O)c3ccc(O)cc3O)c(O)c1C2=O (stereo not given in full) [SANGGENON D]
residual activity at 100 µM (Platelet [2]): 256%
Activity (Platelet [3]): Active
inhibition at 1000 µM (Platelet [4]): 51%

The next lines start with the compound.

Compound: CC1=C[C@H](c2c(O)cc(-c3cc4ccc(O)cc4o3)cc2O)[C@@H](C(=O)c2ccc(O)cc2O)[C@H](c2ccc(O)cc2O)C1 [MULBERROFURAN J]
pIC50 (Platelet [1]): 3.08
residual activity at 100 µM (Platelet [2]): 194%
Activity (Platelet [3]): Active
inhibition at 1000 µM (Platelet [4]): 35.5%
pIC50 (Platelet [5]): 4.29
pIC50 (Platelet [6]): 4.44

Compound: CC(C)=CCc1c(-c2ccc(O)cc2O)oc2c([C@H]3Oc4cc(O)c5c(=O)c(CC=C(C)C)c(-c6ccc(O)cc6O)oc5c4[C@@H]4C=C(C)CC(C)(C)[C@H]34)c(O)cc(O)c2c1=O [KUMANON M]
inhibition at 1000 µM (Platelet [7]): 87.3%
inhibition at 1000 µM (Platelet [8]): 81.5%
inhibition at 1000 µM (Platelet [4]): 68%

Compound: OC[C@H]1O[C@@H](Oc2cc(O)cc(/C=C/c3ccc(O[C@@H]4O[C@H](CO)[C@@H](O)[C@H](O)[C@H]4O)cc3O)c2)[C@H](O)[C@@H](O)[C@@H]1O
Activity (Platelet [1]): inactive
Activity (Platelet [5]): inactive
Activity (Platelet [6]): inactive

Compound: CC(C)=CCc1c(O)ccc(C(=O)[C@@H]2[C@@H](c3c(O)cc(O)c4c(=O)c(CC=C(C)C)c(-c5ccc(O)cc5O)oc34)C=C(C)C[C@H]2c2ccc(O)cc2O)c1O [KUMANON H]
Activity (Platelet [9]): Active
Activity (Platelet [10]): Active
Activity (Platelet [11]): Active
pIC50 (Platelet [5]): 4.12
pIC50 (Platelet [6]): 4.62

Compound: CC(C)=CCc1c(-c2ccc(O)cc2O)oc2c([C@H]3C=C(C)C[C@@H](c4ccc(O)cc4O)[C@@H]3C(=O)c3ccc(O)cc3O)c(O)cc(O)c2c1=O [KUMANON G]
Activity (Platelet [9]): Active
Activity (Platelet [10]): Active
Activity (Platelet [11]): Active
pIC50 (Platelet [5]): 3.88
pIC50 (Platelet [6]): 4.05

Compound: CC1=C[C@H]2c3c(O)cc(-c4cc5ccc(O)cc5o4)cc3O[C@@]3(c4ccc(O)cc4O)Oc4cc(O)ccc4[C@H](C1)[C@@H]23 [MULBERROFURAN G]
pIC50 (Platelet [1]): 4.05
pIC50 (Platelet [5]): 4.46
pIC50 (Platelet [6]): 4.97
